≈ marks a conversion by molar mass, not a printed value. Where two headings read alike, the source gives them in different places.
What was measured:
C. albicans biofilm = assay: Biofilm inhibition concentration (CTB staining); format: cell-based; conditions: Candida albicans; C. albicans biofilm formation reduced to 50% of untreated control; read-out: BIC50
Description: The biofilm inhibition concentration (BIC) was determined as described in […] et al. (J Antimicrob Chemother 69(2014): 1035-1044). In short, RPMI medium was inoculated with an overnight culture to an OD (optical density) of 0.1, transferred to a U-bottom 96-well plate (MLS, Belgium) and treated with serial dilutions of substances. After the adherence phase (1 h, 37° C.), supernatant was removed, adherent cells were washed with PBS and fresh media (including substances) was added. Biofilms were then allowed to grow for 24 h at 37° C. Formed biofilms were then analyzed for their metabolic activity. Therefore, C. albicans biofilm cells were treated with CTB (cell titer Blue®; Promega, Germany), diluted 1:100 in PBS. After incubation for 1 h at 37° C. in the dark fluorescence intensity was measured using a 96-well plate reader (Ex: 535, Em: 590, sens 65). […] Sigma, Germany or ABCR, Germany) was used instead. Thereby, biofilm cells were treated with an XTT solution (0.25 mg/mL XTT+0.1 μM menadione in PBS) at 37° C. in the dark and OD490 was measured. As for MIC, biofilm inhibition was analyzed by setting the corresponding control to 100%. Different flavones were randomly chosen and tested for their effects on planktonic cells and biofilms of C. albicans and C. glabrata to determine corresponding IC50 values (the concentration that is required to reduce growth (minimal inhibitory concentration=MIC) or biofilm formation (biofilm inhibitory concentration=BIC) to 50% compared to the untreated control).

C. albicans [1] = assay: Checkerboard / combination assay, growth of planktonic cells (OD490); format: cell-based, Candida albicans; conditions: for antimycotic effect in combination with other known antimycotics: FIGS. 6 and 7; for effect on antifungal activity of azole antifungals (growth, OD490): flavone 6.25-25 μM with 0.1 μM miconazole or 1 μM fluconazole
Description: The minimal inhibitory concentration (MIC) was determined following the standard Clinical and Laboratory Standards Institute (CLSI) protocol M27 (Rex JH, and Clinical and Laboratory Standards Institute (2008). Reference method for broth dilution antifungal susceptibility testing of yeasts: approved standard, 3rd ed. National Committee for Clinical Laboratory Standards, Wayne, Pa.) for yeast strains or the standard CLSI protocol M38 (Clinical and Laboratory Standards Institute (2008). Reference method for broth dilution antifungal susceptibility testing of filamentous fungi. Clinical and Laboratory Standards Institute, Wayne, Pa.) for filamentous fungi.
For yeast strains media was inoculated with an overnight culture to an OD600 of 0.001 (1^04 cells/mL). Serial dilutions of substances were added and cells were incubated at 37° C. without shaking for 48±1 h.
MIC tests were performed in flat-bottom 96 well plates (Greiner Bio One, Austria) using 100 μL suspension per well sealed with gas-permeable foils. After incubation, OD490 values were measured using 96-well plate reader and growth capacity was analyzed by setting the corresponding control to 100%.
For synergy testing of different combinations, checkerboard assays were performed. Therefore, serial dilutions of two different compounds were combined for MIC, BIC or BEC testing as described above. Antifungal activity of substances alone or in combination was determined by setting the corresponding control to 100%.

C. glabrata biofilm = assay: Biofilm inhibition concentration (XTT); format: cell-based, Candida glabrata; conditions: Nakaseomyces glabratus, read-out: BIC50
Description: In short, RPMI medium was inoculated with an overnight culture to an OD (optical density) of 0.1, transferred to a U-bottom 96-well plate (MLS, Belgium) and treated with serial dilutions of substances. After the adherence phase (1 h, 37° C.), supernatant was removed, adherent cells were washed with PBS and fresh media (including substances) was added. Biofilms were then allowed to grow for 24 h at 37° C. Formed biofilms were then analyzed for their metabolic activity. Therefore, C. albicans biofilm cells were treated with CTB (cell titer Blue®; Promega, Germany), diluted 1:100 in PBS. […] Sigma, Germany or ABCR, Germany) was used instead. Thereby, biofilm cells were treated with an XTT solution (0.25 mg/mL XTT+0.1 μM menadione in PBS) at 37° C. in the dark and OD490 was measured.

C. glabrata = assay: Minimal inhibitory concentration, planktonic cells (CLSI M27); format: cell-based, Candida glabrata; conditions: Nakaseomyces glabratus, growth reduced to 50% of untreated control
Description: (§1) The minimal inhibitory concentration (MIC) was determined following the standard Clinical and Laboratory Standards Institute (CLSI) protocol M27 (Rex JH, and Clinical and Laboratory Standards Institute (2008). Reference method for broth dilution antifungal susceptibility testing of yeasts: approved standard, 3rd ed. National Committee for Clinical Laboratory Standards, Wayne, Pa.) for yeast strains or the standard CLSI protocol […] (Clinical and Laboratory Standards Institute (2008). Reference method for broth dilution antifungal susceptibility testing of filamentous fungi. Clinical and Laboratory Standards Institute, Wayne, Pa.) for filamentous fungi. For yeast strains media was inoculated with an overnight culture to an OD600 of 0.001 (1^04 cells/mL). Serial dilutions of substances were added and cells were incubated at 37° C. without shaking for 48±1 h. MIC tests were performed in flat-bottom 96 well plates (Greiner Bio One, Austria) using 100 μL suspension per well sealed with gas-permeable foils. After incubation, OD490 values were measured using 96-well plate reader and growth capacity was analyzed by setting the corresponding control to 100%. Different flavones were randomly chosen and tested for their effects on planktonic cells and biofilms of C. albicans and C. glabrata to determine corresponding IC50 values (the concentration that is required to reduce growth (minimal inhibitory concentration=MIC) or biofilm formation (biofilm inhibitory concentration=BIC) to 50% compared to the untreated control).

C. albicans [2] = assay: as above; format: cell-based; conditions: Candida albicans, growth reduced to 50% of untreated control
Description: as §1

C. albicans SC5314 = assay: C. elegans infection model, worm survival; format: in vivo
Description: The C. elegans Δglp-4 Δsek-1 strain (generously provided by Valerie Defraine, Centre of Microbial and Plant Genetics, KU Leuven, Belgium) was used for in vivo testing of antifungal activity. Worms were maintained on NGM plates (nematode growth medium; 2.5 g/L Bacto Peptone, 3 g/L NaCl, 17 g/L agar, supplemented with 5 mg/L cholesterol, 1 mM CaCl2), 1 mM MgSO4 and 25 mM KPO4 buffer pH 6.0), seeded with a thin layer of E. coli OP50, at 16° C. and worms were chunked onto fresh plates every three to four days.
Egg collecting was performed by bleaching according to Stiernagle T (“Maintenance of C. elegans”. WormBook. doi: 10.1895/wormbook.1.101 (2006)) and Porta-de-la-Riva M et al. JoVE 64(2012): e4019-e4019). In short, adult worms were collected from plates and treated with a bleaching solution (10 mL household bleach+5 mL 5M NaOH), thereby worms disintegrate and eggs are released. After vigorous shaking for 5 min, M9 medium (3 g/L KH2PO4, 6 g/L Na2HPO4, 5 g/L NaCl, supplemented with 1.25 mM MgSO4) was added and worms were immediately put on ice. After three washing steps, residual eggs were incubated in M9 medium over night at 16° C. on a tube roller. The next day, eggs were collected, transferred onto fresh NGM/OP50 plates and incubated at 25° C. for 3-4 days until nematodes have reached the L3/L4 stage prior to infection.
Synchronized (L3/L4 stage) worms were collected, washed three times with M9 media and spotted onto prepared YPD plates with a thin layer of C. albicans SC5314. […]
For efficacy testing of compounds, 750 μL of the worm suspension were transferred into each well of a 24-well plate and substances were added at indicated concentrations (1% DMSO). Nematodes were immediately counted (t0) and survival was monitored over five days post infection by counting living worms.
To verify the antifungal potential of DHF in vivo, the well-established C. elegans infection model (Breger J, et al. (2007) PLOS Pathog. 3(2): e18.) was used. […] Survival of infected as well as non-infected nematodes was monitored daily over the time period of 5 days (FIG. 2A). […]

C. albicans biofilms = assay: Checkerboard assay, biofilm inhibition (CTB staining); format: cell-based, Candida albicans
Description: The biofilm inhibition concentration (BIC) was determined as described in Delattin N et al. (J Antimicrob Chemother 69(2014): 1035-1044). In short, RPMI medium was inoculated with an overnight culture to an OD (optical density) of 0.1, transferred to a U-bottom 96-well plate (MLS, Belgium) and treated with serial dilutions of substances. After the adherence phase (1 h, 37° C.), supernatant was removed, adherent cells were washed with PBS and fresh media (including substances) was added. Biofilms were then allowed to grow for 24 h at 37° C.
Formed biofilms were then analyzed for their metabolic activity. Therefore, C. albicans biofilm cells were treated with CTB (cell titer Blue®; Promega, Germany), diluted 1:100 in PBS. After incubation for 1 h at 37° C. in the dark fluorescence intensity was measured using a 96-well plate reader (Ex: 535, Em: 590, sens 65). For C. glabrata, XTT (2H-Tetrazolium, 2,3-bis(2-methoxy-4-nitro-5-sulfophenyl)-5-[(phenylamino)carbonyl]-hydroxide; Sigma, Germany or ABCR, Germany) was used instead. Thereby, biofilm cells were treated with an XTT solution (0.25 mg/mL XTT+0.1 μM menadione in PBS) at 37° C. in the dark and OD490 was measured.
For synergy testing of different combinations, checkerboard assays were performed. […] Antifungal activity of substances alone or in combination was determined by setting the corresponding control to 100%.

[3] = C. glabrata biofilm formation reduced to 50% of untreated control

## O=c1cc(-c2ccc(O)c(O)c2)oc2ccccc12 [3′,4′-dihydroxyflavone]
C. albicans biofilm
  IC50: 147 ± 17.3 µM
C. albicans [1]; 12.5-25 μM 3′,4′-DHF with miconazole, fluconazole, ketoconazole or clotrimazole
  effect on antifungal activity of antimycotics (growth, OD490): enhances the antifungal activity of antimycotics
C. albicans [1]
  antimycotic effect in combination with other known antimycotics: synergistic antimycotic effect

## O=c1cc(-c2ccc(O)c(O)c2)oc2cc(O)ccc12 [3′,4′,7-trihydroxyflavone]
C. albicans [1]
  antimycotic effect in combination with other known antimycotics: synergistic antimycotic effect
  effect on antifungal activity of azole antifungals (growth, OD490): enhance the antifungal activity of azole antifungals

## O=c1cc(-c2ccccc2)oc2ccc(O)cc12 [6-hydroxyflavone]
C. glabrata biofilm; [3]
  IC50: 129 ± 14.2 µM

## O=c1cc(-c2ccccc2)oc2cc(O)c(O)cc12 [6,7-dihydroxyflavone]
C. glabrata
  MIC50: 15.7 ± 4.1 µM (≈ 3.99 µg/mL)
C. glabrata biofilm; [3]
  IC50: 41.7 ± 9.1 µM

## O=c1cc(-c2ccc(O)c(O)c2)oc2cc(O)cc(O)c12 [luteolin, 3′,4′,5,7-tetrahydroxyflavone]
C. albicans [1]
  antimycotic effect in combination with other known antimycotics: synergistic antimycotic effect
  effect on antifungal activity of azole antifungals (growth, OD490): enhance the antifungal activity of azole antifungals

## O=c1c(O)c(-c2ccccc2)oc2ccccc12 [3-hydroxyflavone]
C. glabrata
  MIC50: 6.2 ± 0.2 µM (≈ 1.48 µg/mL)

## O=c1cc(-c2ccccc2)oc2cc(O)cc(O)c12 [5,7-dihydroxyflavone, reference compound]
C. albicans [2]
  MIC50: > 400 µM
C. albicans biofilm
  IC50: > 400 µM
C. glabrata
  MIC50: > 400 µM
C. glabrata biofilm; [3]
  IC50: > 400 µM

## O=c1cc(-c2cccc(O)c2)oc2ccccc12 [3′-hydroxyflavone]
C. glabrata biofilm; [3]
  IC50: 26.7 ± 3 µM

## O=c1c(O)c(-c2cccc(O)c2)oc2ccccc12 [3,3′-dihydroxyflavone]
C. albicans [2]
  MIC50: 254 ± 68.5 µM (≈ 64.7 µg/mL)
C. glabrata
  MIC50: 5.9 ± 0.1 µM (≈ 1.5 µg/mL)
C. glabrata biofilm; [3]
  IC50: 21.5 ± 3.6 µM

## O=c1c(O)c(-c2ccccc2)oc2ccc(O)cc12 [3,6-dihydroxyflavone]
C. albicans [2]
  MIC50: 9.5 ± 0.1 µM (≈ 2.42 µg/mL)
C. albicans biofilm
  IC50: 55.2 ± 8.1 µM
C. glabrata
  MIC50: 7.9 ± 1 µM (≈ 2.01 µg/mL)
C. glabrata biofilm; [3]
  IC50: 23.4 ± 9.7 µM
C. albicans SC5314; 25 μM 3,6-DHF with 0.125 μM miconazole or 0.5 μM fluconazole, 5 days
  effect on activity of azoles in vivo (worm survival): enhances the activity of azoles
C. albicans SC5314; 25 μM 3,6-DHF with 0.5 μM AMB, 5 days
  effect on antifungal activity of AMB in vivo (worm survival): enhances the antifungal activity of AMB
C. albicans SC5314; 50 μM DHF, single application immediately after infection, infected control 20.5%
  worms still alive at day 5 post infection: 45.7%
C. albicans [1]; 4.9 nM Caspo, 5 μM 3,6-DHF, preliminary data
  effect on activity of caspofungin, growth of planktonic cells: enhances the activity of Caspofungin
C. albicans [1]; 3.1 μM 3,6-DHF with 0.4 μM miconazole or 0.5 μM fluconazole
  effect on activity of azoles in vitro (growth inhibition): enhances the activity of azoles
C. albicans biofilms; 39 nM Caspo, 3.1 μM 3,6-DHF
  effect on activity of caspofungin, biofilm formation: enhances the activity of Caspofungin
C. albicans biofilms; 0.16 μM AMB, 25 μM 3,6-DHF
  combination with AMB on biofilms in vitro: acts synergistically with AMB

## O=c1c(O)c(-c2ccccc2)oc2cc(O)ccc12 [3,7-dihydroxyflavone]
C. glabrata biofilm
  IC50: 62.5 ± 26 µM

## O=c1c(O)c(-c2ccccc2O)oc2ccccc12 [2′,3-dihydroxyflavone]
C. glabrata
  MIC50: 53.9 ± 2.1 µM (≈ 13.7 µg/mL)
C. glabrata biofilm; [3]
  IC50: 124 ± 34.7 µM

## O=c1cc(-c2ccccc2)oc2cc(O)ccc12 [7-hydroxyflavone]
C. glabrata biofilm
  IC50: 17.4 ± 7 µM

## O=c1cc(-c2ccc(O)cc2)oc2cccc(O)c12 [4′,5-dihydroxyflavone, reference compound]
C. albicans [2]
  MIC50: > 400 µM
C. albicans biofilm
  IC50: > 400 µM
C. glabrata
  MIC50: > 400 µM
C. glabrata biofilm; [3]
  IC50: > 400 µM

— patent publication US20220249431A1, “ANTIMYCOTIC” (Karl-Franzens-Universität Graz, priority 2019, published 2022)
